Experimental findings from patent US20240376094A2, “SELECTIVE BCL-XL PROTAC COMPOUNDS AND METHODS OF USE” (Les Laboratoires Servier, priority 2021, published 2024) are described below.

Assay [1] concerns EBC-1 lung cancer cell line. The experiment in a line: EBC-1 cell proliferation, CellTiter-Glo assay. In kind it is cell-based. As to conditions: Homo sapiens, 120 h; Ebc-1 cell viability, CTG assay, 5 days of treatment; read-out: CTG 5 day Ebc1 GI50. As for the experimental part:
(§1) The ability of the BCL-xL degrader low molecular weight compounds to inhibit cell proliferation and survival was assessed using the Promega CellTiter-Glo® proliferation assay on the EBC-1 lung cancer cell line (RCB1965, obtained from RIKEN.) The cells were cultured in media that is optimal for their growth at 5% CO2, 37° C. in a tissue culture incubator. Prior to seeding for the proliferation assay, the cells were split at least 2 days before the assay to ensure optimal growth density. On the day of seeding, cells were lifted off tissue culture flasks using 0.25% trypsin. Cell viability and cell density were determined using a cell counter (Vi-Cell XR Cell Viability Analyzer, Beckman Coulter). Cells with higher than 85% viability were seeded in white clear bottom 384-well plates (Greiner cat #781098) at a density of 1000 cells per well in 50 μL of standard growth media. Plates were incubated at 37° C. overnight in a tissue culture incubator.
The BCL-xL degrader low molecular weight compounds were prepared to desired concentrations. A series of 10 dilutions were made for each prepared compound. The prepared compounds were then added to the cells resulting in final concentrations of 0.508 nM-10 μM. An acoustic transfer device (Echo555, Beckman Coulter) was used to add the compounds to the cells. Each treatment was tested in triplicate assay plates. Plates were incubated at 37° C. overnight or for 5 days in a tissue culture incubator. The ability of the compounds to inhibit cell proliferation and survival was assessed using the Promega CellTiter-Glo® proliferation assay. Plates were incubated at room temperature for 20 minutes to stabilize luminescent signals prior to reading using a multimode plate reader (PHERAstar FSX Microplate Reader, BMG Labtech).
To evaluate the effect of the compound treatments, luminescent counts of untreated cells were taken the day after seeding (Day 0 readings), and after 5 days of treatment (Day 5 readings). The Day 5 readings of the untreated cells were compared to the Day 0 readings. Assays with at least one cell doubling during the incubation period were considered valid. To evaluate the effect of the drug treatments, luminescent counts from wells containing untreated cells (100% viability) were used to normalize treated samples. The concentrations of treatment required to inhibit 50% of cell growth or survival ([…]) were calculated using a four parameter logistic regression equation.
On the technique in general: Cellular ATP, detected with luciferase, serves as a proxy for viable cell number.

The target of a further assay is T1, HiBiT-tagged BCL-xL (Homo sapiens, UniProt Q07817).
T1 construct: expressed in transfected cells; host or cells: NCI-H1650 (ATCC No. CRL-5883), engineered HiBiT cell line
Kind of assay: NCI-H1650 BCL-xL protein levels, Nano-Glo HiBiT Lytic Detection. In kind it is cell-based. As to conditions: NCI-H1650 expressing HiBiT-tagged BCL-xL, overnight incubation, read-out: Bcl-xl HIBIT NCIH1650 DC50. As for the experimental part:
as §1, with “degrade BCL-xL protein” for “inhibit cell proliferation and survival”, “Nano-Glo® HiBiT Lytic Detection System. The NCI-H1650 (ATCC No. CRL-5883) was engineered to express HiBiT-tagged BCL-xL. The NCI-H1650 HiBiT” for “CellTiter-Glo® proliferation assay on the EBC-1 lung cancer”, “was” for “(RCB1965, obtained from RIKEN.) The cells were”, “protein level” for “proliferation”, “5000” for “1000”, “30” for “50”
The BCL-xL degrader low molecular weight compounds were prepared to desired concentrations. A series of 10 dilutions were made for each prepared compound. The prepared compounds were then added to the cells resulting in final concentrations of 0.508 nM-10 μM. An acoustic transfer device (Echo555, Beckman Coulter) was used to add the compounds to the cells. Each treatment was tested in triplicate assay plates. Plates were incubated at 37° C. overnight in a tissue culture incubator.
BCL-xL degradation was assessed through the addition of 30 μL of Nano-Glo® HiBiT Lytic Reagent (Promega, cat #N3040), a reagent which lyses cells and contains a furimazine substrate and the large subunit (LgBiT) used in NanoLuc® Binary Technology. The LgBiT subunit having high affinity to a HiBiT-tagged protein will bind HiBiT, if present, resulting in complex formation of a luminescent NanoBiT® enzyme. This reaction will emit a luminescent signal proportional to the amount of HiBiT-tagged BCL-xL present in the cell lysate. Plates were incubated at room temperature for 20 minutes to stabilize luminescent signals prior to reading using a luminescence reader (PHERAstar FSX Microplate Reader, BMG Labtech).
To evaluate the effect of the drug treatments, luminescent counts from wells containing untreated cells (100% HiBiT-tagged BCL-xL) were used to normalize treated samples. The concentrations of treatment required to inhibit 50% were calculated using a four parameter logistic regression equation.
A general note: With HiBiT, luminescence reflects the tagged protein that the partner subunit can reach.

Each structure is given as a SMILES string. Some results are limits rather than exact numbers.

T1 sequence (Q07817 whole entry): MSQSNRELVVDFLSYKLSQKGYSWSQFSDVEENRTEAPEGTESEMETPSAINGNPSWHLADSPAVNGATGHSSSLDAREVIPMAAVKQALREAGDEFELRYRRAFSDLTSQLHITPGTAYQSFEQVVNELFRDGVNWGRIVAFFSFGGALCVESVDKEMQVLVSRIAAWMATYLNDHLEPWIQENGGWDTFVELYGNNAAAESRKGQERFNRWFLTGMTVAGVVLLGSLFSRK

As usually defined, the GI50 is the concentration giving 50% growth inhibition. Turning to `Cc1cc(N(CCCCN(C)C(=O)CCCCCCCCCCCCSC(C)(C)[C@H](NC(=O)C2(F)CC2)C(=O)N2C[C@H](O)C[C@H]2C(=O)NCc2ccc(-c3scnc3C)cc2)c2ccc(-c3cnn(CC45CC6(C)CC(C)(C4)CC(OCCN(C)C)(C6)C5)c3C)c(C(=O)O)n2)nnc1Nc1nc2ccccc2s1` [Example 127, 6-[[6-(1,3-benzothiazol-2-ylamino)-5-methyl-pyridazin-3-yl]-[4-[13-[(2R)-2-[(1-fluorocyclopropanecarbonyl)amino]-3-[(2S,4R)-4-hydroxy-2-[[4-(4-methylthiazol-5-yl)phenyl]methylcarbamoyl]pyrrolidin-1-yl]-1,1-dimethyl-3-oxo-propyl]sulfanyltridecanoyl-methyl-amino]butyl]amino]-3-[1-[[3-[2-(dimethylamino)ethoxy]-5,7-dimethyl-1-adamantyl]methyl]-5-methyl-pyrazol-4-yl]pyridine-2-carboxylic acid], the GI50 in assay [1] came out at 0.462 µM. In addition, on HiBiT-tagged BCL-xL, the DC50 amounted to 0.033 µM.
The like results for `Cc1ncsc1-c1ccc([C@H](C)NC(=O)[C@@H]2C[C@@H](O)CN2C(=O)[C@@H](NC(=O)[C@@H]2CCCN(C(=O)c3nc(N4CCCc5c4nnc(Nc4nc6ccccc6s4)c5C)ccc3-c3cnn(CC45CC6(C)CC(C)(C4)CC(OCCN4CCCC4)(C6)C5)c3C)C2)C(C)(C)C)cc1` [Example 169, (R)-1-(6-(3-(benzo[d]thiazol-2-ylamino)-4-methyl-6,7-dihydropyrido[2,3-c]pyridazin-8(5H)-yl)-3-(1-(((1r,3R,5S,7S)-3,5-dimethyl-7-(2-(pyrrolidin-1-yl)ethoxy)adamantan-1-yl)methyl)-5-methyl-1H-pyrazol-4-yl)picolinoyl)-N—((S)-1-((2S,4R)-4-hydroxy-2-(((S)-1-(4-(4-methylthiazol-5-yl)phenyl)ethyl)carbamoyl)pyrrolidin-1-yl)-3,3-dimethyl-1-oxobutan-2-yl)piperidine-3-carboxamide] were, in that order, 0.006 µM and above 1.67 µM.
Regarding `Cc1ncsc1-c1ccc([C@H](C)NC(=O)[C@@H]2C[C@@H](O)CN2C(=O)[C@@H](NC(=O)CCC(=O)N2CCC[C@@H](NC(=O)c3nc(N4CCCc5c4nnc(Nc4nc6ccccc6s4)c5C)ccc3-c3cnn(CC45CC6(C)CC(C)(C4)CC(OCCN4CCCC4)(C6)C5)c3C)C2)C(C)(C)C)cc1` [Example 171], the GI50 in assay [1] is 0.121 µM. For the same molecule, on HiBiT-tagged BCL-xL, the DC50 was above 1.67 µM.
Turning to `Cc1ncsc1-c1ccc([C@H](C)NC(=O)[C@@H]2C[C@@H](O)CN2C(=O)[C@@H](NC(=O)COC2CCN(C(=O)c3nc(N4CCCc5c4nnc(Nc4nc6ccccc6s4)c5C)ccc3-c3cnn(CC45CC6(C)CC(C)(C4)CC(OCCN4CCCC4)(C6)C5)c3C)CC2)C(C)(C)C)cc1` [Example 166, (2S,4R)-1-((S)-2-(2-((1-(6-(3-(benzo[d]thiazol-2-ylamino)-4-methyl-6,7-dihydropyrido[2,3-c]pyridazin-8(5H)-yl)-3-(1-(((1r,3R,5S,7s)-3,5-dimethyl-7-(2-(pyrrolidin-1-yl)ethoxy)adamantan-1-yl)methyl)-5-methyl-1H-pyrazol-4-yl)picolinoyl)piperidin-4-yl)oxy)acetamido)-3,3-dimethylbutanoyl)-4-hydroxy-N—((S)-1-(4-(4-methylthiazol-5-yl)phenyl)ethyl)pyrrolidine-2-carboxamide], in assay [1], the GI50 was determined as 0.068 µM. The DC50 at HiBiT-tagged BCL-xL was found to be 0.001 µM.
